Measurements as given in patent US8906879B2, “Combination for the treatment of cancer” (GlaxoSmithKline Intellectual Property (No. 2) Limited, priority 2010, dated 2014).

Legend:
YAPC = assay: Cell growth inhibition assay (Cell Titer Glo), YAPC; format: cell-based; details: Homo sapiens, 72 h, single agent, KRAS G12V, 3 days
Procedure: (§1) BxPC-3, HuP-T4, PL45, Panc-02-03, Mia-PaCa, HPAF-II, SW1990, Panc-08-13, Capan-1, AsPC-1, Capan-2, HPAC, YAPC and Panc-1 lines were used in the study. BxPC-3, Mia-PaCa, HPAF-11, SW1990, AsPC-1, Capan-2 and YAPC were cultured in RPMI 1640 medium (cat#72400 047, Invitrogen) containing 10% fetal bovine serum (FBS) (cat#SH30071.03, Hyclone). Capan-1 and HuP-T4 were cultured in RPMI 1640 medium containing 20% FBS. PL45 and PANC-1 lines were cultured in DMEM (ATCC 30-2002) containing 10% FBS. Panc-02-03 and Panc-08-13 were cultured in RPMI 1640 medium containing 15% fetal bovine serum and ITSX (51500-056, Gibco). HPAC was cultured in RPMI 1640 medium containing 5% FBS, ITSX, 40 ng/ml Hydrocortism, and 10 ng/ml EGF (85570C-1MG, SAFC Biosciences).
(§2) All cells were cultured for a minimum of 72 hours prior to cell plating. […] ATP levels were determined by adding Cell Titer Glo® (Promega) according to the manufacturer's protocol. Briefly, Cell Titer Glo® was added to each plate, incubated for 30 minutes and then the luminescent signal was read on the SpectraMax L plate reader with a 0.5 sec integration time.
(§3) Inhibition of cell growth was estimated after treatment with compound or combination of compounds for three days and the signal was compared to cells treated with vehicle (DMSO). Cell growth was calculated relative to vehicle (DMSO) treated control wells. […]

Panc-1 = assay: Cell growth inhibition assay (Cell Titer Glo), Panc-1; format: cell-based, human; details: for IC50: Homo sapiens, 72 h, single agent, Panc-1, KRAS G12D, 3 days; for sensitivity of cell growth (in words): KRAS mutant Panc-1 cells
Procedure: as §1
(§4) All cells were cultured for a minimum of 72 hours prior to cell plating. Cells were assayed in a 96-well tissue culture plate (NUNC 136102) of RPMI medium containing 10% FBS for all cells at 1,000 cells per well. Approximately 24 hours after plating, cells were exposed to ten, three-fold serial dilutions of compound or the combination of the two agents at a constant molar to molar ratio of 1:1 Compound A to Compound B in RPMI media containing 10% FBS. Cells were incubated in the presence of compounds for 3 days. ATP levels were determined by adding Cell Titer Glo® (Promega) according to the manufacturer's protocol. Briefly, Cell Titer Glo® was added to each plate, incubated for 30 minutes and then the luminescent signal was read on the SpectraMax L plate reader with a 0.5 sec integration time.
as §3
(§5) Combination effects on potency were evaluated using Combination Index (CI) which was calculated with the back-interpolated IC50 values and the mutually non-exclusive equation derived by Chou and Talalay: CI=Da/IC50(a)+Db/IC50(b)+(Da×Db)/(IC50(a)×IC50(b)) […]
(§6) The combination effects on the response scale were quantified by Excess Over Highest Single Agent (EOHSA) based on the concept of nonlinear blending as described in detail by Liu et al, 2011. […] For single agent and combination treatments, cells were exposed to compounds at a fixed-dose-ratio, and dose response curves were fit to the experimental data and analyzed using regression models. At specified total dose levels of IC50 along the dose response curve, the dose combination (corresponding to IC50) was determined for making EOHSA statistical inferences. […]

Panc-08-13 = assay: Cell growth inhibition assay (Cell Titer Glo), Panc-08-13; format: cell-based; details: Homo sapiens, 72 h; single agent; Panc-08-13, KRAS G12D; 3 days
Procedure: as §1, §2, §3

PL45 = assay: Cell growth inhibition assay (Cell Titer Glo), PL45; format: cell-based; details: Homo sapiens, 72 h; single agent; PL45, KRAS G12D; 3 days
Procedure: as §1, §2, §3

Capan-2 = assay: Cell growth inhibition assay (Cell Titer Glo), Capan-2; format: cell-based; details: Homo sapiens, 72 h; single agent; Capan-2, KRAS G12V; 3 days
Procedure: as §1, §2, §3

BxPC-3 = assay: Cell growth inhibition assay (Cell Titer Glo), BxPC-3; format: cell-based; details: Homo sapiens, 72 h; single agent; BxPC-3, KRAS WT; 3 days
Procedure: as §1, §2, §3

Panc-02-03 = assay: Cell growth inhibition assay (Cell Titer Glo), Panc-02-03; format: cell-based; details: Homo sapiens, Panc 02.03, 72 h; single agent; Panc-02-03, KRAS G12D; 3 days
Procedure: as §1, §2, §3

SW1990 = assay: Cell growth inhibition assay (Cell Titer Glo), SW1990; format: cell-based; details: Homo sapiens, 72 h; single agent; SW1990, KRAS G12D; 3 days
Procedure: as §1, §2, §3

[1] = system: KRAS mutant tumor lines, HuP-T4, PL45, Panc-02-03 and Mia-PaCa; assay: Cell growth inhibition assay, four KRAS mutant lines; format: cell-based; details: Homo sapiens; single agent; range over HuP-T4, PL45, Panc-02-03 and Mia-PaCa
Procedure: as §1, §4, §3, §5, §6

[2] = system: KRAS mutant lines HPAF-11, SW1990, Panc-08-13 and Capan-1; assay: as above; format: cell-based; details: Homo sapiens; single agent; over HPAF-11, SW1990, Panc-08-13 and Capan-1
Procedure: as §1, §4, §3, §5, §6

HPAF-II = assay: Cell growth inhibition assay (Cell Titer Glo), HPAF-II; format: cell-based; details: Homo sapiens, 72 h, single agent, KRAS G12D, 3 days
Procedure: as §1, §2, §3

Capan-1 = assay: Cell growth inhibition assay (Cell Titer Glo), Capan-1; format: cell-based; details: Homo sapiens, 72 h; single agent; Capan-1, KRAS G12V; 3 days
Procedure: as §1, §2, §3

AsPC-1 = assay: Cell growth inhibition assay (Cell Titer Glo), AsPC-1; format: cell-based; details: Homo sapiens, ASPC1, 72 h; single agent; AsPC-1, KRAS G12D; 3 days
Procedure: as §1, §2, §3

HuP-T4 = assay: Cell growth inhibition assay (Cell Titer Glo), HuP-T4; format: cell-based; details: Homo sapiens, 72 h; single agent; HuP-T4, KRAS G12V; 3 days
Procedure: as §1, §2, §3

HPAC = assay: Cell growth inhibition assay (Cell Titer Glo), HPAC; format: cell-based; details: Homo sapiens, 72 h, single agent, KRAS G12D, 3 days
Procedure: as §1, §2, §3

Mia-PaCa = assay: Cell growth inhibition assay (Cell Titer Glo), Mia-PaCa; format: cell-based; details: Homo sapiens, MIA PaCa-2, 72 h, single agent, KRAS G12C, 3 days
Procedure: as §1, §2, §3

IC50 (Panc-1) [µM]	IC50 (Panc-08-13) [µM]	IC50 (BxPC-3) [µM]	IC50 (Panc-02-03) [µM]	IC50 (SW1990) [µM]	IC50 [1] [µM]	IC50 [2] [µM]	IC50 (AsPC-1) [µM]	IC50 (Mia-PaCa) [µM]	SMILES	IC50 (YAPC) [µM]	sensitivity of cell growth (in words) (Panc-1)	IC50 (PL45) [µM]	IC50 (Capan-2) [µM]	IC50 (HPAF-II) [µM]	IC50 (Capan-1) [µM]	IC50 (HuP-T4) [µM]	IC50 (HPAC) [µM]
> 1	> 1	0.008	0.088 ± 0.017	≥ 1	0.007 to 0.088	> 1	> 1	0.021 ± 0.001	Nc1ccn([C@@H]2O[C@H](CO)[C@@H](O)C2(F)F)c(=O)n1 [Compound B, 4-amino-1-(2-deoxy-2,2-difluoro-β-D-erythro-pentofuranosyl)pyrimidin-2(1H)-on 2′,2′-difluoro-2′-deoxycytidine]	0.012 ± 0.008	resistant	0.013 ± 0.002	> 1	> 1	> 1	0.007 ± 0.005	> 1
> 1	0.067 ± 0.014	0.014	0.032 ± 0.013	0.062 ± 0.043	0.001 to 0.059	0.059 to 0.193	0.005	0.059 ± 0.028	CC(=O)Nc1cccc(-n2c(=O)n(C3CC3)c(=O)c3c(Nc4ccc(I)cc4F)n(C)c(=O)c(C)c32)c1 [Compound A, N-{3-[3-cyclopropyl-5-(2-fluoro-4-iodo-phenylamino)-6,8-dimethyl-2,4,7-trioxo-3,4,6,7-tetrahydro-2H-pyrido[4,3-d]pyrimidin-1-yl]phenyl}acetamide]	> 1	resistant	0.015 ± 0.004	0.01 ± 0.001	0.059 ± 0.053	0.193 ± 0.078	0.001 ± 0.001	0.021 ± 0.006
